According to patent US20080249130A1, “Gut microsomal triglyceride transport protein inhibitors” (Sirtris Pharmaceuticals, Inc., priority 2007, published 2008):
“And” between values parts separate entries of the source, which are not always exact repeats. Identical values can stand only once. Like-named read-outs stand apart in the source and are kept apart here.

Experiments:
MTP [1] = molecular target: T1, MTP (Homo sapiens, UniProt P55157); assay: In vitro inhibition of MTP, triacylglycerol transfer assay with donor and acceptor liposomes (fluorescence); format: biochemical
T1 sequence (P55157 19-894, species assumed): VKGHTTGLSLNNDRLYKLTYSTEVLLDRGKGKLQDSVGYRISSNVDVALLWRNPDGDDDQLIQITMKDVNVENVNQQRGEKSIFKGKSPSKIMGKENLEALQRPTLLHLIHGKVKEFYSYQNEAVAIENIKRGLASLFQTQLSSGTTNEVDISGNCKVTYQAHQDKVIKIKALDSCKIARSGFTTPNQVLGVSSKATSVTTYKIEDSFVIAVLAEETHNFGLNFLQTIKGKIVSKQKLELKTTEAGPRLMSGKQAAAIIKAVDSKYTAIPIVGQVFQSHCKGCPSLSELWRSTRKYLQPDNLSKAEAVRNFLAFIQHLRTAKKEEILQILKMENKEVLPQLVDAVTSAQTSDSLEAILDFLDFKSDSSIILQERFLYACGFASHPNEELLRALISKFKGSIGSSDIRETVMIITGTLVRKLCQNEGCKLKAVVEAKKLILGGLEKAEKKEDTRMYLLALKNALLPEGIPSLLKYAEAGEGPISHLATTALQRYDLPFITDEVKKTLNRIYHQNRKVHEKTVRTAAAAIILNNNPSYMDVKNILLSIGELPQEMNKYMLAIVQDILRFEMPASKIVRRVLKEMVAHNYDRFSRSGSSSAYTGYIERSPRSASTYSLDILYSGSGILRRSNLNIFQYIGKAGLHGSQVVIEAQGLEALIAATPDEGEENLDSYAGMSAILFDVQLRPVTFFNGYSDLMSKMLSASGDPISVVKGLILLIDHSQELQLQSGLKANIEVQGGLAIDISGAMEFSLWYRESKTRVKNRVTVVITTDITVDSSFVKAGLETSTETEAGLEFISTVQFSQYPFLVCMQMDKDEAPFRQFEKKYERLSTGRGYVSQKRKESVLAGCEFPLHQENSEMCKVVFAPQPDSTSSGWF
T1 sequence (P07237 18-508 partner, species assumed): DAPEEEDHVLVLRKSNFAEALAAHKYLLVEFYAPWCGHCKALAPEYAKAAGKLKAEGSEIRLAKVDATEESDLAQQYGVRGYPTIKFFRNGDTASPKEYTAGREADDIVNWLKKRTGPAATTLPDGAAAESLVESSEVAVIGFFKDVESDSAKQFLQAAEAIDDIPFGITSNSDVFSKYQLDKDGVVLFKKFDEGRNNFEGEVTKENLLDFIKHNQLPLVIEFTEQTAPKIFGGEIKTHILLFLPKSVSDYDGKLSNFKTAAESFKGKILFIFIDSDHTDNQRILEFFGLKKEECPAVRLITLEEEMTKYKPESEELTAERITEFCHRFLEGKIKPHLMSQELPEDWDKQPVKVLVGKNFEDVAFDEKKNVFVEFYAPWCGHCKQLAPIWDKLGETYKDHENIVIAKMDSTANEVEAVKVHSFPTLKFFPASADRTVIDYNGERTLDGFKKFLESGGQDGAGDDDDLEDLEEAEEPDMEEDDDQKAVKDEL
Procedure: This assay is commercially available (Cat. #D400, Chylos Inc., New York). Liposomes are pipetted in 5 μl aliquots into the wells of a black fluorescence microtiter plate, followed by addition of 5 μl of water and an incubation of 2-5 min to allow the samples to equilibrate to rt. Next, 5 μl of compound dissolved in DMSO is added to the vesicles. The reaction is initated by the addition of 5 μl MTP, followed by incubation for 30 min at room temperature. […] Time of incubation can be increased to measure low activity in different samples. In such situations, samples are prepared just prior to measuring fluorescence units. For this purpose, isopropanol is added to substrate vesicles about 5 min prior to fluorescence measurement as the fluorescence readings in isopropanol decrease with time.

[2] = system: secretion of ApoB by HepG2 cells; assay: ApoB secretion inhibition assay in HepG2 cells (ApoB ELISA); format: cell-based, human; conditions: Homo sapiens
Summary of the method: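 HepG2 cells were serum-starved for 24 h, then treated for 24 h in DMEM with 1% BSA, 0.3 mM BSA-complexed oleic acid and 0.1% DMSO. Secreted ApoB in conditioned medium was measured by sandwich ELISA (A450). Viability was checked by AlamarBlue fluorescence.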

C57BL/6 male mice = assay: Murine food intake; format: in vivo; conditions: mice fasted overnight, 100 mg/kg PO, out through 6 hours
Procedure: C57BL/6 male mice, 18-22 grams (Wilmington, Mass. Charles River Labs), 10 mice per group, are fasted overnight (16 hrs). Mice are dosed PO at indicated dose (10 animals vehicle and 10 animals receive 100 mg/kg of test compound) and a preweighed amount of food is given to animals. Food is weighed every hour up to 6 hrs. Blood is collected at 2 to 6 hours.

MTP [3] = molecular target: T1, MTP; conditions: As referenced in Wetterau et al., Science 282: 751, 1998; read-out: gMTP IC50 Triacylglycerol Transfer Assay (Example 3); cited from earlier work
[4] = Table 6, assay of Example 3, read-out: IC50 Enzyme Assay
[5] = HepG2, Table 6, assay of Example 2, read-out: IC50 ApoB Assay
[6] = Tables 2-5, first symbol of the cell, read-out: IC50 Tri-acylglycerol (TAG) Transfer Assay (Example 3)
[7] = HepG2, Tables 2-5, second symbol of the cell, read-out: IC50 Apo B Secretion Assay (Example 2)

SMILES	IC50 (MTP [1]; [4])	IC50 [2, 5]	also measured
Cc1csc2nc(-c3ccccc3C(=O)Nc3ccc4nc(C(=O)N[C@H](C(=O)N(C)Cc5ccc(F)cc5)c5ccccc5)sc4c3)cn12 [Compound 64, (S)—N-(2-((4-fluorobenzyl)(methyl)amino)-2-oxo-1-phenylethyl)-6-(2-(3-methylimidazo[2,1-b]thiazol-6-yl)benzamido)benzo[d]thiazole-2-carboxamide]	95.8 nM	6.9 nM	
CN(Cc1ccc(F)cc1)C(=O)[C@@H](NC(=O)c1nc2ccc(NC(=O)c3ccccc3-c3nc(C(C)(C)C)cs3)cc2s1)c1ccccc1 [Compound 66, (S)-6-(2-(4-tert-butylthiazol-2-yl)benzamido)-N-(2-((4-fluorobenzyl)(methyl)amino)-2-oxo-1-phenylethyl)benzo[d]thiazole-2-carboxamide]	4.6 nM	4 nM	
CC(C)(C)c1ccc(-c2ccccc2C(=O)NC23CCC(C(=O)N[C@H](C(=O)N4CCCC4)c4ccccc4)(CC2)CC3)cc1 [Compound 67, (S)-4-(4′-tert-butylbiphenyl-2-ylcarboxamido)-N-(2-oxo-1-phenyl-2-(pyrrolidin-1-yl)ethyl)bicyclo[2.2.2]octane-1-carboxamide]	2.4 nM	1.8 nM	
CN(Cc1ccc(F)cc1)C(=O)[C@@H](NC(=O)C12CCC(NC(=O)c3ccccc3-c3ccc(C(C)(C)C)cc3)(CC1)CC2)c1ccccc1 [Compound 68, (S)-4-(4′-tert-butylbiphenyl-2-ylcarboxamido)-N-(2-((4-fluorobenzyl)(methyl)amino)-2-oxo-1-phenylethyl)bicyclo[2.2.2]octane-1-carboxamide]	9.9 nM	5.6 nM	
CCCN(C)C(=O)[C@@H](NC(=O)C12CCC(CNC(=O)c3cccc(C)c3-c3ccc(C(C)(C)C)cc3)(CC1)CC2)c1ccccc1 [Compound 73]	3.5 nM	11.8 nM	
Cc1cccc(C(=O)NCC23CCC(C(=O)N[C@H](C(=O)N(C)Cc4ccc(F)cc4)c4ccccc4)(CC2)CC3)c1-c1ccc(C(C)(C)C)cc1 [Compound 75]	56.2 nM	5.9 nM	
COc1cccc(C(=O)Nc2ccc3nc(C(=O)N[C@H](C(=O)N4CCCC4)c4ccccc4)sc3c2)c1-c1ccc(C(C)(C)C)cc1 [Compound 77]	3.8 nM	1.2 nM	
COc1cccc(C(=O)Nc2ccc3nc(C(=O)N[C@H](C(=O)N(C)Cc4ccc(F)cc4)c4ccccc4)sc3c2)c1-c1ccc(C(C)(C)C)cc1 [Compound 78]	20.5 nM and 7.9 nM	2.4 nM	
Cc1cccc(C(=O)Nc2nc(-c3ccc(C(=O)N[C@H](C(=O)N4CCCC4)c4ccccc4)cc3)cs2)c1-c1ccc(C(C)(C)C)cc1 [Compound 83]	10.2 nM	13.2 nM	
Cc1cccc(C(=O)Nc2ccc3nc(C(=O)N[C@H](C(=O)N(C)Cc4ccc(F)cc4)c4ccccc4)sc3c2)c1-c1ccc(C(C)C)cc1 [Compound 86]	9.9 nM and 5.2 nM	1.5 nM	
CN(Cc1ccc(F)cc1)C(=O)[C@@H](NC(=O)c1ccc2nc(NC(=O)c3ccccc3C3CCNCC3)ccc2c1)c1ccccc1 [Compound C1]			drop in food intake compared to control (C57BL/6 male mice): ~50%; IC50 (MTP [1]; [6]): > 1010 nM; IC50 [2, 7]: > 1010 nM
CN(Cc1ccc(F)cc1)C(=O)[C@@H](NC(=O)c1ccc2nc(NC(=O)c3ccccc3C3CCNC3)ccc2c1)c1ccccc1 (stereo partly drawn) [Compound C3]			IC50 (MTP [1]; [6]): 101 to 1000 nM; IC50 [2, 7]: > 1010 nM
CN(Cc1ccc(F)cc1)C(=O)[C@@H](NC(=O)c1ccc2nc(NC(=O)c3ccccc3-c3cn4ccsc4n3)ccc2c1)c1ccccc1 [Compound C5]			IC50 (MTP [1]; [6]): < 100 nM; IC50 [2, 7]: < 100 nM
O=C1C[C@@H](c2ccc(O)cc2)Oc2cc(O)cc(O)c21 [compound 1, Naringenin, reference compound]			inhibition in Triacylglycerol Transfer Assay (Example 3) (MTP [1]; at 200 μM): >90% inhibitionat 200 μM; inhibition at 200 µM (MTP [1]; at 200 μM, read-out: inhibition in Triacylglycerol Transfer Assay (Example 3)): > 90%; IC50 ([2]; HepG2, Table 1, HepG2 cells, read-out: gMTP IC50 ApoB Secretion Assay (Example 2)): 200000 nM; inhibition at 200 µM ([2]; at 200 μM, HepG2 cells): 50%
O=C(NC1CCN(CCCCC2(C(=O)NCC(F)(F)F)c3ccccc3-c3ccccc32)CC1)c1ccccc1-c1ccc(C(F)(F)F)cc1 [compound 2, N-(2,2,2-trifluoroethyl)-9-(4-(4-(4′-(trifluoromethyl)biphenyl-2-ylcarboxamido)piperidin-1-yl)butyl)-9H-fluorene-9-carboxamide]			IC50 (MTP [3]): 0.5 nM
CN(Cc1ccc(F)cc1)C(=O)[C@@H](NC(=O)C12CCC(CNC(=O)c3ccccc3-c3ccc(C(C)(C)C)cc3)(CC1)CC2)c1ccccc1 [drawing 120/drawing 118]			IC50 (MTP [1]; [6]): < 100 nM; IC50 [2, 7]: 101 to 1000 nM
CC(C)(C)c1ccc(-c2ccccc2C(=O)Nc2ccc3nc(C(=O)N[C@H](C(=O)N4CCCC4)c4ccccc4)sc3c2)cc1 [drawing 126/drawing 123]			IC50 (MTP [1]; [6]): < 100 nM; IC50 [2, 7]: < 100 nM

The next lines start with results.

IC50 (MTP [1]; [4])	IC50 [2, 5]	SMILES	also measured
3.1 nM	2.7 nM	COc1cccc(C(=O)Nc2ccc3nc(C(=O)N[C@H](C(=O)N4CCCC4)c4ccccc4)sc3c2)c1-c1ccc(C(F)(F)F)cc1 [Compound 79]	
3.6 nM	1.1 nM	COc1cccc(C(=O)Nc2ccc3nc(C(=O)N[C@H](C(=O)N4CCCC4)c4ccccc4)sc3c2)c1-c1ccc(C(C)C)cc1 [Compound 84]	
5.1 nM	2.3 nM	Cc1cccc(C(=O)Nc2ccc3nc(C(=O)N[C@H](C(=O)N4CCCC4)c4ccccc4)sc3c2)c1-c1ccc(C(C)C)cc1 [Compound 85]	
